System: PC3 cells
Assay: NAMPT Cell Proliferation Assay
Type: cell-based
Details: Homo sapiens, PC-3, 120 h, 5 days incubation, cell viability by Cell Titer Glo
Description: NAMPT Cell Proliferation Assay
PC3 cells were seeded in 96-well black plates (Corning #3904) at 500 cells/well in 90 μl of RPMI media containing 10% heat-inactivated FBS and incubated overnight at 37° C. and 5% CO2 to allow cells to attach to wells. The following day, test compounds were serially diluted in neat DMSO to 1000× final concentrations prior to dilution with RPMI media to 10× and 1% DMSO. Ten μL of the 10× compounds were then transferred to wells containing cells to produce a dose response of 10-fold dilutions from 10 μM to 1×10^−5 μM. Cells were incubated for 5 days at 37° C. and 5% CO2, then cell viability was measured using Cell Titer Glo reagent (Promega #G7571). Percent inhibition values were calculated and fitted to a sigmoidal dose response curves using Assay Explorer software to determine IC50s.

Row | Compound | IC50 [µM]
1 | CC(C)CC1CCCN1C(=O)c1ccc(C(=O)NCc2ccn3ccnc3c2)cc1 (centres unmarked) [Example 877, N-(imidazo[1,2-a]pyridin-7-ylmethyl)-4-{[2-(2-methylpropyl)pyrrolidin-1-yl]carbonyl}benzamide] | > 10
2 | COC[C@H]1CCCN1C(=O)c1ccc(C(=O)NCc2ccn3ccnc3c2)cc1 [Example 878, N-(imidazo[1,2-a]pyridin-7-ylmethyl)-4-{[(2R)-2-(methoxymethyl)pyrrolidin-1-yl]carbonyl}benzamide] | > 10
3 | CC(C)(C(=O)N1CCC(c2ccc(C(=O)NCc3ccn4ccnc4c3)s2)CC1)N1CCNCC1 [Example 879, N-(imidazo[1,2-a]pyridin-7-ylmethyl)-5-{1-[2-methyl-2-(piperazin-1-yl)propanoyl]piperidin-4-yl}thiophene-2-carboxamide] | 0.0633
4 | COc1ccccc1C(=O)Nc1ccc(C(=O)NCc2ccn3ccnc3c2)cc1 [Example 880, N-{4-[(imidazo[1,2-a]pyridin-7-ylmethyl)carbamoyl]phenyl}-2-methoxybenzamide] | 0.75
5 | O=C(NCc1ccn2ccnc2c1)c1ccc(S(=O)(=O)c2ccccc2)cc1 [Example 881, N-(imidazo[1,2-a]pyridin-7-ylmethyl)-4-(phenylsulfonyl)benzamide] | 8.49
6 | O=C(NCc1ccc2ncnn2c1)c1ccc(S(=O)(=O)c2ccccc2)cc1 [Example 882, 4-(phenylsulfonyl)-N-([1,2,4]triazolo[1,5-a]pyridin-6-ylmethyl)benzamide] | > 10
7 | CC(C)(C)Cn1cc(-c2ccc(C(=O)NCc3ccn4ccnc4c3)s2)cn1 [Example 883, 5-[1-(2,2-dimethylpropyl)-1H-pyrazol-4-yl]-N-(imidazo[1,2-a]pyridin-7-ylmethyl)thiophene-2-carboxamide] | 0.00022
8 | O=C(NCc1ccn2ccnc2c1)c1ccc(-c2cnn(CC34CC5CC(CC(C5)C3)C4)c2)s1 [Example 884] | 0.000968
9 | O=C(NCc1ccn2ccnc2c1)c1ccc(-c2cnn(Cc3ccccc3)c2)s1 [Example 885, 5-(1-benzyl-1H-pyrazol-4-yl)-N-(imidazo[1,2-a]pyridin-7-ylmethyl)thiophene-2-carboxamide] | 0.00533
10 | O=C(NCc1ccn2ccnc2c1)c1ccc(-c2cnn(CC34CC5CC(CC(C5)O3)C4)c2)s1 [Example 886] | 0.000194
11 | O=C(NCc1ccn2ccnc2c1)c1ccc(C2CCN(C(=O)c3cc(F)ccc3F)CC2)s1 [Example 887, 5-[1-(2,5-difluorobenzoyl)piperidin-4-yl]-N-(imidazo[1,2-a]pyridin-7-ylmethyl)thiophene-2-carboxamide] | 0.000214
12 | O=C(NCc1ccn2ccnc2c1)c1ccc(C2CCN(C(=O)c3ccc(F)cc3F)CC2)s1 [Example 888, 5-[1-(2,4-difluorobenzoyl)piperidin-4-yl]-N-(imidazo[1,2-a]pyridin-7-ylmethyl)thiophene-2-carboxamide] | 0.000494
13 | O=C(NCc1ccn2ccnc2c1)c1ccc(-c2cnn(CCN3CCNCC3)c2)o1 [Example 889, N-(imidazo[1,2-a]pyridin-7-ylmethyl)-5-{1-[2-(piperazin-1-yl)ethyl]-1H-pyrazol-4-yl}furan-2-carboxamide] | 0.651
14 | O=C(Cc1cc(F)ccc1F)Nc1ccc(C(=O)NCc2ccn3ccnc3c2)cc1 [Example 890, 4-{[(2,5-difluorophenyl)acetyl]amino}-N-(imidazo[1,2-a]pyridin-7-ylmethyl)benzamide] | 0.0318
15 | O=C(Cc1ccc(F)cc1F)Nc1ccc(C(=O)NCc2ccn3ccnc3c2)cc1 [Example 891, 4-{[(2,4-difluorophenyl)acetyl]amino}-N-(imidazo[1,2-a]pyridin-7-ylmethyl)benzamide] | 0.0872
16 | Cn1nc(C2CC2)cc1-c1ccc(C(=O)NCc2ccn3ccnc3c2)s1 [Example 892, 5-(3-cyclopropyl-1-methyl-1H-pyrazol-5-yl)-N-(imidazo[1,2-a]pyridin-7-ylmethyl)thiophene-2-carboxamide] | 0.00676
17 | COCCn1nc(C2CC2)cc1-c1ccc(C(=O)NCc2ccn3ccnc3c2)s1 [Example 893, 5-[3-cyclopropyl-1-(2-methoxyethyl)-1H-pyrazol-5-yl]-N-(imidazo[1,2-a]pyridin-7-ylmethyl)thiophene-2-carboxamide] | 0.000662
18 | O=C(NCc1cn2ccnc2cn1)c1ccc(-c2cnn(CCN3CCNCC3)c2)s1 [Example 894, N-(imidazo[1,2-a]pyrazin-6-ylmethyl)-5-{1-[2-(piperazin-1-yl)ethyl]-1H-pyrazol-4-yl}thiophene-2-carboxamide] | 0.202
19 | O=C(NCc1ccn2ccnc2c1)c1ccc(NC(=O)C(F)(F)c2ccccc2)cc1 [Example 895, 4-{[difluoro(phenyl)acetyl]amino}-N-(imidazo[1,2-a]pyridin-7-ylmethyl)benzamide] | 0.73
20 | CC(C)(C(=O)Nc1ccc(C(=O)NCc2ccn3ccnc3c2)cc1)c1ccccc1 [Example 896, N-(imidazo[1,2-a]pyridin-7-ylmethyl)-4-[(2-methyl-2-phenylpropanoyl)amino]benzamide] | 1.58
21 | O=C(NCc1cn2ccnc2cn1)c1ccc(S(=O)(=O)c2ccccc2)cc1 [Example 897, N-(imidazo[1,2-a]pyrazin-6-ylmethyl)-4-(phenylsulfonyl)benzamide] | 0.716
22 | O=C(NCc1ccc2nccn2c1)c1ccc(S(=O)(=O)c2ccccc2)cc1 [Example 898, N-(imidazo[1,2-a]pyridin-6-ylmethyl)-4-(phenylsulfonyl)benzamide] | 0.223
23 | CC(C)Cn1nccc1-c1ccc(C(=O)NCc2ccn3ccnc3c2)s1 [Example 899, N-(imidazo[1,2-a]pyridin-7-ylmethyl)-5-[1-(2-methylpropyl)-1H-pyrazol-5-yl]thiophene-2-carboxamide] | 0.181
24 | CC(C)(C)OC(=O)N1CCC(c2ccc(NC(=O)Cc3ccn4ccnc4c3)cc2)CC1 [Example 900, tert-butyl 4-{4-[(imidazo[1,2-a]pyridin-7-ylacetyl)amino]phenyl}piperidine-1-carboxylate] | 0.0174
25 | O=C(CC1CCCC1)Nc1ccc(C(=O)NCc2cn3c(Cl)cnc3cn2)cc1 [Example 901, N-[(3-chloroimidazo[1,2-a]pyrazin-6-yl)methyl]-4-[(cyclopentylacetyl)amino]benzamide] | 0.865
26 | O=C(Cc1ccn2ccnc2c1)Nc1ccc(C2CCN(C(=O)c3ccc(F)cc3F)CC2)cc1 [Example 902, N-{4-[1-(2,4-difluorobenzoyl)piperidin-4-yl]phenyl}-2-(imidazo[1,2-a]pyridin-7-yl)acetamide] | 0.0108
27 | CC(C)C(=O)N1CCC(c2ccc(NC(=O)Cc3ccn4ccnc4c3)cc2)CC1 [Example 903, 2-(imidazo[1,2-a]pyridin-7-yl)-N-{4-[1-(2-methylpropanoyl)piperidin-4-yl]phenyl}acetamide] | 0.0352
28 | CC(C)C(=O)N1CCC(c2ccc(NC(=O)NCc3ccn4c(Cl)cnc4c3)cc2)CC1 [Example 904, 1-[(3-chloroimidazo[1,2-a]pyridin-7-yl)methyl]-3-{4-[1-(2-methylpropanoyl)piperidin-4-yl]phenyl}urea] | 0.282
29 | O=C(Cc1ccn2ccnc2c1)Nc1ccc(C2CCN(C(=O)c3ccccc3F)CC2)cc1 [Example 905, N-{4-[1-(2-fluorobenzoyl)piperidin-4-yl]phenyl}-2-(imidazo[1,2-a]pyridin-7-yl)acetamide] | 0.000994

— patent US9187472B2 (AbbVie Inc., priority 2012, dated 2015)
